Where “and” joins values, the source holds several entries; their conditions need not be identical. Identical values can stand only once.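 Growth conditions: 96-well plates. Treatment: test compound, 48 hours, 5 concentrations. Analysis: linear interpolation between bracketing concentrations; unreached endpoints set to highest concentration. GI50: concentration for 50% inhibition of growth. TGI marks complete inhibition of growth.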 Where only a bound is given, the exact number is not on record here.

Some test systems named below: 786-0 renal; ACHN renal; CCRF-CEM leukemia; MALME-3M melanoma; MCF7 breast; MDA-MB-231 breast; NCI-H23 lung; RPMI-8226 leukemia; SN12C renal; U251 CNS.
Common to all, as to assay: growth of human tumour cells (NCI), 48 h

As to `O=C(Nc1ccc([N+](=O)[O-])cc1Cl)c1cc(Cl)ccc1O`, the GI50 in the assay on 786-0 renal was 0.142 µM and 0.268 µM; in the assay on ACHN renal it was 0.155 µM and 0.258 µM; in the assay on CCRF-CEM leukemia, 0.133 µM and 0.305 µM; in the assay on MALME-3M melanoma, 0.101 µM and 0.194 µM; in the assay on MCF7 breast, 0.151 µM and 0.286 µM; with MDA-MB-231 breast, 0.11 µM and 0.162 µM. In addition, the GI50 was 0.104 µM and 0.19 µM in the assay with NCI-H23 lung; 0.0502 µM and 0.176 µM with RPMI-8226 leukemia; 0.115 µM and 0.195 µM in the assay with SN12C renal; 0.0971 µM and 0.217 µM in the assay with U251 CNS. Also, the TGI in the assay on 786-0 renal was 0.488 µM and 0.825 µM; in the assay with ACHN renal, 19.4 µM; in the assay with MALME-3M melanoma it was 0.338 µM and 0.744 µM; with MDA-MB-231 breast it was 0.461 µM and 0.593 µM; in the assay with NCI-H23 lung, 0.39 µM and 0.737 µM; in the assay on RPMI-8226 leukemia, 0.287 µM.

With `N/C(=N/O)NOCCC(N)C(=O)O` (stereo unspecified), the GI50 in the assay with 786-0 renal, in the assay on ACHN renal, in the assay with CCRF-CEM leukemia, with MALME-3M melanoma, in the assay with MCF7 breast and in the assay with MDA-MB-231 breast was over 100 µM throughout. The GI50 in the assay on NCI-H23 lung, with RPMI-8226 leukemia, in the assay on SN12C renal and in the assay on U251 CNS was over 100 µM throughout. Further, the TGI in the assay on 786-0 renal, with ACHN renal, with CCRF-CEM leukemia, in the assay on MALME-3M melanoma, in the assay on MCF7 breast and with MDA-MB-231 breast was over 100 µM throughout. Besides, the TGI with NCI-H23 lung, in the assay with RPMI-8226 leukemia, in the assay with SN12C renal and in the assay with U251 CNS was over 100 µM in each case.

In the case of `NC(=O)C1CCCN1Cc1ccc2c(c1)OCO2` (stereo unspecified), the TGI in the assay with 786-0 renal, in the assay on ACHN renal, with CCRF-CEM leukemia, in the assay on MALME-3M melanoma, with MCF7 breast and in the assay on MDA-MB-231 breast was over 100 µM each time. Further, the TGI with NCI-H23 lung, with RPMI-8226 leukemia, with SN12C renal and with U251 CNS was over 100 µM in each case.

On to `O=C(COc1ccc(Cl)cc1Cl)NNc1ccc([N+](=O)[O-])cc1`, for which the GI50 with 786-0 renal is 25.6 µM; with ACHN renal it was 51.5 µM; in the assay with MALME-3M melanoma, 23.6 µM; in the assay on MCF7 breast it was over 100 µM; in the assay with MDA-MB-231 breast, 30.8 µM; with NCI-H23 lung, 41.5 µM. Moreover, the GI50 in the assay with RPMI-8226 leukemia is over 100 µM; with SN12C renal, 80 µM; in the assay with U251 CNS, 20.1 µM. The TGI is 61.2 µM in the assay with 786-0 renal; over 100 µM with ACHN renal; 57.1 µM with MALME-3M melanoma; over 100 µM in the assay on MCF7 breast; over 100 µM in the assay on MDA-MB-231 breast; over 100 µM in the assay with NCI-H23 lung. The TGI is over 100 µM in the assay with RPMI-8226 leukemia, over 100 µM in the assay with SN12C renal and 43.6 µM in the assay with U251 CNS.

On to `COc1cccc(/C=C/C(=O)c2cc3c(N)c(C(=O)Nc4ccccc4)sc3nc2C)c1`, for which the GI50 is 0.802 µM in the assay with 786-0 renal; 0.971 µM with ACHN renal; 2.03 µM in the assay with MALME-3M melanoma; 1.69 µM in the assay with MCF7 breast; 1.79 µM in the assay with MDA-MB-231 breast; 1.2 µM in the assay on NCI-H23 lung. Besides, the GI50 in the assay on RPMI-8226 leukemia was 1.18 µM; in the assay with SN12C renal it was 1.12 µM; in the assay on U251 CNS, 0.897 µM. In addition, the TGI in the assay with 786-0 renal was determined as 1.72 µM; with ACHN renal, 1.86 µM; in the assay with MALME-3M melanoma, 15 µM; with MCF7 breast, 8.85 µM; in the assay on MDA-MB-231 breast, 11.7 µM; in the assay with NCI-H23 lung it was 3.05 µM. In addition, the TGI in the assay with RPMI-8226 leukemia was 2.54 µM; with SN12C renal, 2.78 µM; in the assay with U251 CNS it was 1.72 µM.

On to `Nc1nc(N)c2c(n1)NC(c1ccc(Cl)cc1)C1CCc3ccccc3C1=N2` (stereo unspecified), for which the GI50 was 11.8 µM in the assay with 786-0 renal; 4.72 µM with ACHN renal; 8.48 µM in the assay on MALME-3M melanoma; 2.41 µM with MCF7 breast; 9.73 µM in the assay with MDA-MB-231 breast; 4.88 µM in the assay on NCI-H23 lung. Further, the GI50 in the assay on RPMI-8226 leukemia is 2.75 µM; in the assay on SN12C renal, 7.68 µM; in the assay on U251 CNS, 3.81 µM. Moreover, the TGI in the assay on 786-0 renal was found to be 24.1 µM; in the assay on ACHN renal, 18.3 µM; with MALME-3M melanoma, 22.8 µM; in the assay with MCF7 breast, 10.4 µM; in the assay with MDA-MB-231 breast, 21.8 µM; with NCI-H23 lung it was 18 µM. Also, the results for the TGI in the assay with RPMI-8226 leukemia, with SN12C renal and in the assay on U251 CNS were 11.5 µM, 21.7 µM and 16.3 µM, respectively.

Consider `O=C(Nc1c(Cl)cccc1Cl)Oc1cccc2cccnc12`, for which the GI50 with 786-0 renal was 7.4 µM; in the assay on ACHN renal, 3.87 µM; with CCRF-CEM leukemia, 2.29 µM; with MALME-3M melanoma it was 6.19 µM; in the assay with MCF7 breast, 2.99 µM; in the assay with MDA-MB-231 breast it was 4.24 µM. In addition, the GI50 with NCI-H23 lung is 4.07 µM; in the assay on RPMI-8226 leukemia it was 3.64 µM; in the assay with SN12C renal it was 4.61 µM. Also, the TGI in the assay with 786-0 renal was over 100 µM; in the assay on ACHN renal, over 100 µM; in the assay with CCRF-CEM leukemia, 23.2 µM; in the assay with MALME-3M melanoma, 81 µM; with MCF7 breast it was over 100 µM; in the assay on MDA-MB-231 breast, 25.3 µM. Moreover, the values for the TGI in the assay on NCI-H23 lung, with RPMI-8226 leukemia and in the assay with SN12C renal were 45.5 µM, 47.7 µM and over 100 µM, respectively.

On to `C=C1C(=O)O[C@H]2[C@H]1CC/C(COC(=O)NCCc1ccc(Br)cc1)=C\CC[C@@]1(C)O[C@@H]21`, for which the GI50 in the assay on 786-0 renal was 1.04 µM; with ACHN renal it was 1.32 µM; with CCRF-CEM leukemia, 0.279 µM; in the assay on MALME-3M melanoma, 2.09 µM; in the assay on MCF7 breast, 0.417 µM; in the assay with MDA-MB-231 breast, 1.42 µM. The GI50 in the assay on NCI-H23 lung was 1.72 µM; with RPMI-8226 leukemia, 0.624 µM; in the assay with U251 CNS, 1.4 µM. Moreover, the TGI in the assay on 786-0 renal was determined as 2.4 µM; with ACHN renal, 2.78 µM; with CCRF-CEM leukemia, 0.847 µM; in the assay with MALME-3M melanoma it was 3.77 µM; in the assay on MCF7 breast it was 1.82 µM; with MDA-MB-231 breast, 3.08 µM. Besides, the TGI came to 3.84 µM with NCI-H23 lung, 2.89 µM in the assay on RPMI-8226 leukemia and 2.75 µM with U251 CNS.

The record behind these values is PubChem BioAssay (NCI).
